Experiment [1] has as its target T1, imidazole glycerol phosphate synthase (IGPS), HisH-HisF heterodimer (Thermotoga maritima, UniProt Q9X0C6+Q9X0C8). In words: glutaminase assay, coupled glutamate dehydrogenase/APAD. The format is biochemical.
For experiment [2], the target named is T1, imidazole glycerol phosphate synthase (IGPS), HisH-HisF heterodimer. In words: isothermal titration calorimetry. The format is binding.

For `CCC(CNCCO)Nc1nc2c(c(=O)n(C)c(=O)n2C)n1Cc1ccccc1` (centres unmarked) [compound 3, 7-benzyl-8-[(1-{[(2-hydroxyethyl)amino]methyl}propyl)amino]-1,3-dimethyl-2,3,6,7-tetrahydro-1H-2,6-purinedione], affinity in experiment [1] was put at a Ki of 900 ± 70 µM. The affinity in experiment [2], expressed as Kd, was 1500 ± 300 µM.

The Ki is a dissociation constant, usually derived from enzyme kinetics or from competition with a known ligand. Low values mean tighter binding, high ones weaker binding. The term Kd denotes the constant that tells how readily two partners part at equilibrium. A low value points to a tighter complex.

Source of the values: publication PMC5283573 (Biochemistry, 2016).
